The target in this assay is ROCK2 (Homo sapiens, UniProt O75116). Put plainly: ROCK2 kinase inhibition assay (Caliper LABCHIP, FITC peptide substrate). The following applies: 5 μM ATP, 1.5 μM peptide substrate; value ranges. The class given is biochemical. The gist of the method:
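Dose-response curves gave IC50 from inhibition of peptide phosphorylation, measured by LabChip separation after EDTA stop. Reactions used 1.5 μM FITC-labelled peptide, 5 μM ATP, 20 mM HEPES pH 7.5 with MgCl2, Brij-35, DTT, and under 2% DMSO.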
Chain of ROCK2 (O75116 whole entry, species assumed): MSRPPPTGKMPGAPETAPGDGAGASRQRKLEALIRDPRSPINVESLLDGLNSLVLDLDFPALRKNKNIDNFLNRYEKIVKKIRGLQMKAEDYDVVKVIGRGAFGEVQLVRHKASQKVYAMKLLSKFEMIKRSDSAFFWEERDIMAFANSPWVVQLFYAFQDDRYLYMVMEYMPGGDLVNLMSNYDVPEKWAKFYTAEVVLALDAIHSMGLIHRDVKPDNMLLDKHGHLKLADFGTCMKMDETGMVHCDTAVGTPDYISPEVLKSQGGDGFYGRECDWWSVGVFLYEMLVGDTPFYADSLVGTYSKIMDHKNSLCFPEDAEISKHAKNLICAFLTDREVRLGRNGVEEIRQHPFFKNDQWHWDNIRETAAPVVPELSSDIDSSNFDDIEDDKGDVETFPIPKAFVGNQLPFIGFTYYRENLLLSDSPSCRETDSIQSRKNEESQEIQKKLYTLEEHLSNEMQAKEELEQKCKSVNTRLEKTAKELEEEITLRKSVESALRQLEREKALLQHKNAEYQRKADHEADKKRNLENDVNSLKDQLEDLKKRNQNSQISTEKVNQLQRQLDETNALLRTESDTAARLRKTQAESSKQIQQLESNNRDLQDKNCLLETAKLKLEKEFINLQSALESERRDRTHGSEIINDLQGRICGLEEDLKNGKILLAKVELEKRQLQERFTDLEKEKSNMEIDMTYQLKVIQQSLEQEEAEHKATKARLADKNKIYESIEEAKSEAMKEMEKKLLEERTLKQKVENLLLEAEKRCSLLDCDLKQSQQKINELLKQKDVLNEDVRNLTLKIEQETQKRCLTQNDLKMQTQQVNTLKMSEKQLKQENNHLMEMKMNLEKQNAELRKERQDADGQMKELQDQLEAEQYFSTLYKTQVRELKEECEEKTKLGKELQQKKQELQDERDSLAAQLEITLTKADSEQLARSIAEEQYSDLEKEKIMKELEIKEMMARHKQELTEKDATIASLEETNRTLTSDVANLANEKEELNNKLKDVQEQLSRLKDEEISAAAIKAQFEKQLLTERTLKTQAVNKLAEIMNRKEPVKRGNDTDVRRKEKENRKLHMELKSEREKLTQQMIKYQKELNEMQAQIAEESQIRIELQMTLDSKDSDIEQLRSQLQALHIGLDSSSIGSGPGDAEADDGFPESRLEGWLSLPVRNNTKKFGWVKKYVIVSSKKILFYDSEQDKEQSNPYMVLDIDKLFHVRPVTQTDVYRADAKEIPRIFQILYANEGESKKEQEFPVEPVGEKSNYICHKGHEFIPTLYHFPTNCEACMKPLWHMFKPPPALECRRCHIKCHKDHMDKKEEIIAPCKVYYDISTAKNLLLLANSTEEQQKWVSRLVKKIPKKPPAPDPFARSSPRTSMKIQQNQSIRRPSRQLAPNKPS
As a reminder, the IC50 is the midpoint of a concentration-inhibition curve. Take `COc1nc(N2CCN(Cc3cccc(F)c3OC)C2=O)ccc1-c1cn[nH]c1` [Example 225, 1-(3-fluoro-2-methoxybenzyl)-3-(6-methoxy-5-(1H-pyrazol-4-yl)pyridin-2-yl)imidazolidin-2-one]: the IC50 lay in the range of 0.0021 to 0.02 µM. `COc1cccc(C(C)n2ccn(-c3ccc(-c4cn[nH]c4)c(C)n3)c2=O)c1` (single isomer, unassigned) [Example 189, 1-(1-(3-methoxy-phenyl)-ethyl)-3-(6-methyl-5-(1H-pyrazol-4-yl)pyridin-2-yl)-1H-imidazol-2(3H)-one]: the IC50 was in the range of 0.0201 to 0.2 µM. With `CC(c1cccc(OCC2CC2)c1)n1ccn(-c2ccc(-c3cn[nH]c3)cc2)c1=O` (single isomer, unassigned) [Example 356, 1-(4-(1H-pyrazol-4-yl)phenyl)-3-(1-(3-(cyclopropylmethoxy)phenyl)ethyl)-1H-imidazol-2(3H)-one] the figure was 0.2 to 2 µM; with `COc1cccc(CN2CCN(c3ccc(-c4ncnc5[nH]ccc45)cc3)C2=O)c1` [Example 64, 1-(4-(7H-Pyrrolo[2,3-d]pyrimidin-4-yl)phenyl)-3-(3-methoxybenzyl)imidazolidin-2-one], 0.2 to 2 µM. The value for `CNC(=O)C(c1cccc(OC)c1)N1CCN(c2ccc(-c3cn[nH]c3)cc2)C1=O` (single isomer, unassigned) [Example 292, 2-(3-(4-(1H-pyrazol-4-yl)phenyl)-2-oxoimidazolidin-1-yl)-2-(3-methoxyphenyl)-N-methylacetamide] was 0.0021 to 0.02 µM. The value for `CCOC(=O)C1CN(Cc2cccc(OC)c2)C(=O)N1c1ccc(-c2cn[nH]c2)cc1` (centres unmarked) [Example 36, Ethyl 3-(4-(1H-pyrazol-4-yl)phenyl)-1-(3-methoxybenzyl)-2-oxoimidazolidine-4-carboxylate] was 0.0021 to 0.02 µM; that for `COc1cccc(C(C)n2ccn(-c3ccc(-c4ccnc5[nH]ccc45)cc3)c2=O)c1` (single isomer, unassigned) [Example 325, 1-(4-(1H-Pyrrolo[2,3-b]pyridin-4-yl)phenyl)-3-(1-(3-methoxyphenyl)ethyl)-1H-imidazol-2(3H)-one] was 0.0201 to 0.2 µM; that for `CC(c1ccccc1)N1C(=O)CN(c2ccc(-c3cn[nH]c3)cc2)C1=O` (centres unmarked) [Example 109, 1-(4-(1H-pyrazol-4-yl)phenyl)-3-(1-phenylethyl) imidazolidine-2,4-dione] was 0.2 to 2 µM. Consider `COc1nc(N2CCN(C(C)c3cccc(OCC4CC4)c3)C2=O)ccc1-c1cn[nH]c1` (single isomer, unassigned) [Example 212, 1-(1-(3-(cyclopropylmethoxy)phenyl)ethyl)-3-(6-methoxy-5-(1H-pyrazol-4-yl)pyridin-2-yl)imidazolidin-2-one], for which the IC50 lay in the range of 0.0021 to 0.02 µM. The value for `CCc1cc(N2CCN(Cc3ccc(F)c(OC)c3)C2=O)ccc1-c1cn[nH]c1` [Example 281, 1-(3-ethyl-4-(1H-pyrazol-4-yl)phenyl)-3-(4-fluoro-3-methoxybenzyl)imidazolidin-2-one] was 0.0021 to 0.02 µM; that for `COc1ccc(F)cc1CN1CCN(c2ccc(-c3cn[nH]c3)c(F)c2)C1=O` [Example 424, 1-(5-fluoro-2-methoxybenzyl)-3-(3-fluoro-4-(1H-pyrazol-4-yl)phenyl)imidazolidin-2-one] was 0.0021 to 0.02 µM; that for `CCc1cc(N2CCN(Cc3ccc(F)c(OC)c3)C2=O)ncc1-c1cn[nH]c1` [Example 194, 1-(4-ethyl-5-(1H-pyrazol-4-yl)pyridin-2-yl)-3-(4-fluoro-3-methoxy-benzyl) imidazolidin-2-one] was 0.2 to 2 µM. In the case of `CCOc1cccc(C(C)n2ccn(-c3ccc(-c4cn[nH]c4)cc3)c2=O)c1` (single isomer, unassigned) [Example 368, 1-(4-(1H-pyrazol-4-yl)phenyl)-3-(1-(3-ethoxyphenyl)ethyl)-1H-imidazol-2(3H)-one], the IC50 lay within 0.2 to 2 µM. Molecule `COc1cccc(C(C)(CO)N2CCN(c3ccc(-c4cn[nH]c4)cc3)C2=O)c1` (single isomer, unassigned) [Example 286, 1-(4-(1H-Pyrazol-4-yl)phenyl)-3-(1-hydroxy-2-(3-methoxyphenyl)propan-2-yl)imidazolidin-2-one] gave an IC50 of 0.0201 to 0.2 µM.

The record behind these values is patent US10123993B2, “Cyclic ureas as inhibitors of rock” (BRISTOL-MYERS SQUIBB COMPANY, priority 2015, dated 2018).
